Data taken from US20250281676A1 (priority 2020, published 2025).

Tests used:
tumor = conditions: delivered by thermosensitive, biodegradable hydrogels; gradual release, local delivery to tumor site; cited from earlier work
carcinomas = conditions: delivered with pH sensitive hydrogels; cited from earlier work
[1] = Net charge and isoelectric point of peptide; type: physicochemical; conditions: pH 7
From the text: The peptide may be purified. For example, the peptide may be lyophilized. […] Other peptides are within the scope of the disclosure.
Exemplary peptides having a charge of +5 to +9 include […](d)[…], […] (d)[…], and […] (d)[…]. In other embodiments, the purified peptide may be substantially neutral. […] Net charge may be selected by peptide design. Design of electrostatic charge in the peptide hydrogel may allow control of charge interaction with cell membrane and proteins.

| Compound | tumor size compared to systemic delivery (carcinomas) | other results |
| --- | --- | --- |
| COc1cccc2c1C(=O)c1c(O)c3c(c(O)c1C2=O)C[C@@](O)(C(=O)CO)C[C@@H]3O[C@H]1C[C@H](N)[C@H](O)[C@H](C)O1 [DOX, Doxorubicin] | – | treatment outcomes compared to systemic treatment modalities (tumor): improved treatment outcomes |
| O=c1[nH]cc(F)c(=O)[nH]1 [5-fluorouracil] | significant decrease in tumor size | – |
| VEVSVSVEVdPPTEVSVEVEV-NH2 | – | net charge [1]: net negative charge |
| CN(C)C(=N)N=C(N)N [metformin] | significant decrease in tumor size | – |
